The results in this text go back to patent US20210030719A1, “GRP94 INHIBITORS TO TREAT STEROID-INDUCED OCULAR HYPERTENSIONS AND GLAUCOMAS” (UNIVERSITY OF SOUTH FLORIDA, priority 2018, published 2021).

One assay deals with Wild-type (WT) mice. In words: Mouse model of steroid-induced glaucoma, IOP by rebound tonometer, WT mice. It counts as in vivo. The following applies: 0.1% dexamethasone topically to the eye three times per day.
Assay [1] deals with human trabecular meshwork (HTM) cells. In words: HTM cell culture medium, extracellular proteins (dot blot). It counts as cell-based. The following applies: dexamethasone. On the procedure:
(§1) HTM Treatments: Low passage number human trabecular meshwork (HTM) cells were cultured in DMEM supplemented with 10% fetal bovine serum and 1% penicillin/streptomycin. HTM cells were treated for 10 days (replaced every 2-3 days) with 100 nM dexamethasone. HTM cells were validated by expression of myocilin under these conditions.
(§2) Western and Dot Blots: Anterior eye segments and HTM cells were lysed in RIPA buffer. HTM lysates were separated by SDS-PAGE and transferred to a PVDF membrane. Lysates and culture media for dot blots were applied to a nitrocellulose membrane. Blots were blocked in 7% non-fat milk solution. Myocilin antibody was provided by W. D. Stamer. Collagen I and Fibronectin antibodies were purchased from Santa Cruz Biotechnology. Actin antibody was purchased from Sigma Aldrich (St. Louis, Mo.). Blots were developed using species specific secondary antibodies from Southern Biotech.
(§3) Quantification and Statistical Analysis: Two-tailed student's t-test and two-way ANOVA with Bonferroni's post-hoc tests were used as detailed in the figure legends. Values were considered significant if p<0.05. Graphs were generated using GraphPad Prism 5.0 analysis software or Microsoft Excel. N-value in this study is depicted as number of animals or number of eyes where indicated. Graphs are plotted as ±SEM or % CV as indicated.

Assay [2] relates to ECM components (Collagen I, Fibronectin). In words: ECM components in lysates of anterior eye sections of SIG model mice (dot blot / Western blot). It counts as in vivo, mouse. The following applies: dex & 4Br-BnIm treated group; overall not statistically significant. The source says: Animal Husbandry: Mice were housed and bred at the University of South Florida Byrd Alzheimer's Institute. All animal procedures performed in this study followed the ARVO Statement for the Use of Animals in Ophthalmic and Vision Research and were approved by the University of South Florida Institutional Animal Care and Use Committee. A cohort of 35 animals from separate litters were used for this study; 20 male mice (10 WT and 10 Myoc-KO) and 15 female mice (8 WT and 7 Myoc-KO). […] Technicians performing the drug delivery and tonometry measurements were blinded for animal genotype as well as each compound and the respective vehicle treatment. […] No other treatment groups or geneotypes suffered losses. One WT animal on the Dex+4Br—BnIm study began the study with only one eye. […] 4Br—BnIm treatment dose was based on previous studies. […] The drop was allowed to sit on the eye for 1 minute before the mouse was returned to its cage. One drop of 0.1% Dexamethasone eye drops (Dexamethasone Sodium Phosphate Ophthalmic Solution USP, 0.1% Dexamethasone Phosphate Equivalent; Bauch and Lomb) or PBS (vehicle) was applied to each eye. Dexamethasone treatments were conducted at 6:30 AM, 9 AM, and 2 PM, every day. […]
Quantification and Statistical Analysis: Two-tailed student's t-test and two-way ANOVA with Bonferroni's post-hoc tests were used as detailed in the figure legends. […]

The test system of the next assay is mutant myocilin. In words: Cellular studies of mutant myocilin degradation. It counts as cell-based.
In assay [3] the test system is human trabecular meshwork (HTM) cells. In words: HTM cell lysates, intracellular Collagen I and Fibronectin (Western blot). It counts as cell-based. On the procedure: as §1, §2, §3
Setting [4] is: HTM cells treated with dex, 24 hours after Grp94 inhibitor treatment.
The mark [5] stands for this setting: HTM cells, 4Br-BnIm in the absence of dexamethasone.

Description for Wild-type (WT) mice: A cohort of 35 animals from separate litters were used for this study; 20 male mice (10 WT and 10 Myoc-KO) and 15 female mice (8 WT and 7 Myoc-KO). […] Technicians performing the drug delivery and tonometry measurements were blinded for animal genotype as well as each compound and the respective vehicle treatment. […] The drop was allowed to sit on the eye for 1 minute before the mouse was returned to its cage. One drop of 0.1% Dexamethasone eye drops (Dexamethasone Sodium Phosphate Ophthalmic Solution USP, 0.1% Dexamethasone Phosphate Equivalent; Bauch and Lomb) or PBS (vehicle) was applied to each eye. Dexamethasone treatments were conducted at 6:30 AM, 9 AM, and 2 PM, every day.
IOP Measurements: IOP levels in the mouse eye were obtained using the Icare TonoLab rebound tonometer and their guidelines were followed (Icare, Finland). Measurements were taken at LOAM to control for diurnal fluctuations in IOP levels which occur throughout the day. Mice were anesthetized with 3-4% isoflurane in oxygen once a week. After mice were sufficiently anesthetized, the mice were placed in an open restraint platform and IOP measurements were taken for each eye. […]

Consider `C[C@@H]1C[C@H]2[C@@H]3CCC4=CC(=O)C=C[C@]4(C)[C@@]3(F)[C@@H](O)C[C@]2(C)[C@@]1(O)C(=O)CO` [dexamethasone], for which the “increase in IOP” value with Wild-type (WT) mice was “roughly 33%”. The “increase of extracellular myocilin” value in assay [1] is recorded as “over 500%”.
In the case of `COC(=O)c1c(O)cc(O)c(Cl)c1CCc1nccn1Cc1ccc(Br)cc1` [4Br—BnIm, methyl 2-(2-(1(4-bromobenzyl)-1H-imidazol-2-yl)ethyl)-3-chloro-4,6-dihydroxybenzoate], in assay [2], the “Collagen I in anterior eye lysates” value is listed as “decrease in the mean values” and the “Fibronectin in anterior eye lysates” value was “decrease in the mean values”. For the same compound, the “effect on toxic mutant myocilin” value with mutant myocilin is reported as “degradation of toxic mutant myocilin”. In addition, in assay [3] (setting [4]), the “intracellular Collagen I levels” value was “statistically significant decreases” and the “intracellular Fibronectin levels” value is recorded as “statistically significant decreases”. In assay [3] (setting [5]), the “Intracellular Collagen I” value is recorded as “unchanged” and the “Intracellular Fibronectin” value is reported as “unchanged”.
